Legend:
Assay in all cases: relative viability (nuclei count vs DMSO), 5 days (fraction); higher = more cells survive
[1] = system: NCI-H1650; settings: first compound 20 µM
Method in brief: (§1)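 Each reported value is a median over duplicate plates. It expresses relative viability: treated-well nuclei count divided by vehicle-well nuclei count. Lung cancer cell lines in 1536-well plates were dosed by pin tool a day after seeding, alone with one drug or with a fixed anchor-drug dose plus five library-drug doses (not always all listed) in √10 steps, and nuclei were counted after 5 days.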

[2] = system: NCI-H1666
Method in brief: as §1

[3] = system: NCI-H1793
Method in brief: as §1

[4] = system: NCI-H1944
Method in brief: as §1

[5] = system: NCI-H2085
Method in brief: as §1

[6] = system: NCI-H2087
Method in brief: as §1

[7] = system: NCI-H2126
Method in brief: as §1

[8] = system: NCI-H3122
Method in brief: as §1

[9] = system: NCI-H441
Method in brief: as §1

[10] = system: NCI-H596
Method in brief: as §1

[11] = system: NCI-H661
Method in brief: as §1

[12] = system: PC-14
Method in brief: as §1

Q: Which relative viability [1] does the source give for `Cc1csc(=NC2CCCCC2)n1/N=C/c1ccc(O)c(O)c1O` [MIM1] + CCNC(=O)c1noc(-c2cc(C(C)C)c(O)cc2O)c1-c1ccc(CN2CCOCC2)cc1 [Luminespib] (partner 0.01 µM) here?
A: 0.22

Q: What about the relative viability ([2]; first compound 0.2 µM) of the same compound?
A: 1.02

Q: And the relative viability ([2]; first compound 0.6325 µM)?
A: 1.13

Q: And the relative viability ([2]; first compound 2 µM)?
A: 1.02

Q: What about the relative viability ([2]; first compound 6.325 µM) of the same compound?
A: 0.884

Q: And the relative viability ([2]; first compound 20 µM)?
A: 0.767

Q: What about the relative viability ([3]; first compound 0.2 µM) of the same compound?
A: 0.187

Q: What about the relative viability ([3]; first compound 2 µM) of the same compound?
A: 0.188

Q: What about the relative viability ([3]; first compound 6.325 µM) of the same compound?
A: 0.162

Q: What about the relative viability ([3]; first compound 20 µM) of the same compound?
A: 0.138

Q: What about the relative viability ([4]; first compound 0.2 µM) of the same compound?
A: 0.632

Q: What about the relative viability ([4]; first compound 0.6325 µM) of the same compound?
A: 0.823

Q: What about the relative viability ([4]; first compound 2 µM) of the same compound?
A: 0.466

Q: What about the relative viability ([4]; first compound 6.325 µM) of the same compound?
A: 0.517

Q: What about the relative viability ([4]; first compound 20 µM) of the same compound?
A: 0.568

Q: And the relative viability ([5]; first compound 0.2 µM)?
A: 0.42

Q: And the relative viability ([5]; first compound 0.6325 µM)?
A: 0.466

Q: And the relative viability ([5]; first compound 2 µM)?
A: 0.455

Q: And the relative viability ([5]; first compound 6.325 µM)?
A: 0.442

Q: What about the relative viability ([5]; first compound 20 µM) of the same compound?
A: 0.404

Q: And the relative viability ([6]; first compound 0.2 µM)?
A: 0.145

Q: What about the relative viability ([6]; first compound 0.6325 µM) of the same compound?
A: 0.183

Q: And the relative viability ([6]; first compound 2 µM)?
A: 0.199

Q: And the relative viability ([6]; first compound 6.325 µM)?
A: 0.176

Q: And the relative viability ([6]; first compound 20 µM)?
A: 0.132

Q: What about the relative viability ([7]; first compound 0.2 µM) of the same compound?
A: 0.891

Q: What about the relative viability ([7]; first compound 0.6325 µM) of the same compound?
A: 0.943

Q: And the relative viability ([7]; first compound 2 µM)?
A: 0.957

Q: What about the relative viability ([7]; first compound 6.325 µM) of the same compound?
A: 0.88

Q: What about the relative viability ([7]; first compound 20 µM) of the same compound?
A: 0.466

Q: What about the relative viability ([8]; first compound 0.2 µM) of the same compound?
A: 0.0956

Q: And the relative viability ([8]; first compound 0.6325 µM)?
A: 0.0902

Q: And the relative viability ([8]; first compound 2 µM)?
A: 0.103

Q: And the relative viability ([8]; first compound 6.325 µM)?
A: 0.106

Q: What about the relative viability ([8]; first compound 20 µM) of the same compound?
A: 0.0938

Q: What about the relative viability ([9]; first compound 0.2 µM) of the same compound?
A: 0.253

Q: And the relative viability ([9]; first compound 2 µM)?
A: 0.327

Q: And the relative viability ([9]; first compound 6.325 µM)?
A: 0.354

Q: What about the relative viability ([9]; first compound 20 µM) of the same compound?
A: 0.191

Q: And the relative viability ([10]; first compound 0.2 µM)?
A: 1.03

Q: And the relative viability ([10]; first compound 0.6325 µM)?
A: 0.879

Q: What about the relative viability ([10]; first compound 2 µM) of the same compound?
A: 0.939

Q: What about the relative viability ([10]; first compound 6.325 µM) of the same compound?
A: 0.918

Q: What about the relative viability ([10]; first compound 20 µM) of the same compound?
A: 0.486

Q: What about the relative viability ([11]; first compound 0.2 µM) of the same compound?
A: 0.92

Q: And the relative viability ([11]; first compound 0.6325 µM)?
A: 0.928

Q: What about the relative viability ([11]; first compound 2 µM) of the same compound?
A: 0.86

Q: And the relative viability ([11]; first compound 6.325 µM)?
A: 0.576

Q: And the relative viability ([11]; first compound 20 µM)?
A: 0.269

Q: And the relative viability ([12]; first compound 0.2 µM)?
A: 0.177

Q: What about the relative viability ([12]; first compound 0.6325 µM) of the same compound?
A: 0.137

Q: And the relative viability ([12]; first compound 2 µM)?
A: 0.17

Q: What about the relative viability ([12]; first compound 6.325 µM) of the same compound?
A: 0.115

Q: And the relative viability ([12]; first compound 20 µM)?
A: 0.144

Reference: the supplement of paper PMC10307832
